Molecules are shown by their SMILES.

What is called IC50 is the concentration that inhibits the measured activity by half. Read a high IC50 as weaker potency in that assay.

This test addresses T1, α4β7 integrin binding to human MAdCAM-1-Ig (Homo sapiens, UniProt P13612+P26010).
T1 construct: endogenous in cells; host or cells: RPMI 8866 cells
T1 sequence (P13612 34-1032): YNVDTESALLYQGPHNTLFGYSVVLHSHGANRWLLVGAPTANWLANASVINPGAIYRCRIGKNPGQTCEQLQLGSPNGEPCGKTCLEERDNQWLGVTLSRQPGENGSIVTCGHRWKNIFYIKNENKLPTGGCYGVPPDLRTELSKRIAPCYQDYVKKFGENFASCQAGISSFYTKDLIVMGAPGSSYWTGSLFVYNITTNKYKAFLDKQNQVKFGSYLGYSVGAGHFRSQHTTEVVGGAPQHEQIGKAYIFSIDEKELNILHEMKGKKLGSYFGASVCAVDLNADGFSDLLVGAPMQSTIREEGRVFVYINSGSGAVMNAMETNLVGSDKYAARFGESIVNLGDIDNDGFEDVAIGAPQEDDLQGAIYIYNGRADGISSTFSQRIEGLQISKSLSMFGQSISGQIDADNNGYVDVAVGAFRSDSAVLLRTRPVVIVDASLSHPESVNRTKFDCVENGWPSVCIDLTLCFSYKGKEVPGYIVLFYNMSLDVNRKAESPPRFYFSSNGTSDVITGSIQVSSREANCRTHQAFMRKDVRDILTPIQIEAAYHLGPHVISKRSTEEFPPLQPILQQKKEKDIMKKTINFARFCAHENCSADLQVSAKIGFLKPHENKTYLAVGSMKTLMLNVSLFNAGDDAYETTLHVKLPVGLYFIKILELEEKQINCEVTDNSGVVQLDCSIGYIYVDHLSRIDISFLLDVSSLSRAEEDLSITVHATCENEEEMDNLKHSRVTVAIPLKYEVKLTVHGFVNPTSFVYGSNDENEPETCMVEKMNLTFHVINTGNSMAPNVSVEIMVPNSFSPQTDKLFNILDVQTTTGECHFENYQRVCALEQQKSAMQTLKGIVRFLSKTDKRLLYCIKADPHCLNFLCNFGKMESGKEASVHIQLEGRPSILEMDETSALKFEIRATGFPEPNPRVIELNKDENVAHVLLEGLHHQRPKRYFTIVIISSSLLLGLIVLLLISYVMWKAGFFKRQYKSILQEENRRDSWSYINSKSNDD
T1 sequence (P26010 20-798): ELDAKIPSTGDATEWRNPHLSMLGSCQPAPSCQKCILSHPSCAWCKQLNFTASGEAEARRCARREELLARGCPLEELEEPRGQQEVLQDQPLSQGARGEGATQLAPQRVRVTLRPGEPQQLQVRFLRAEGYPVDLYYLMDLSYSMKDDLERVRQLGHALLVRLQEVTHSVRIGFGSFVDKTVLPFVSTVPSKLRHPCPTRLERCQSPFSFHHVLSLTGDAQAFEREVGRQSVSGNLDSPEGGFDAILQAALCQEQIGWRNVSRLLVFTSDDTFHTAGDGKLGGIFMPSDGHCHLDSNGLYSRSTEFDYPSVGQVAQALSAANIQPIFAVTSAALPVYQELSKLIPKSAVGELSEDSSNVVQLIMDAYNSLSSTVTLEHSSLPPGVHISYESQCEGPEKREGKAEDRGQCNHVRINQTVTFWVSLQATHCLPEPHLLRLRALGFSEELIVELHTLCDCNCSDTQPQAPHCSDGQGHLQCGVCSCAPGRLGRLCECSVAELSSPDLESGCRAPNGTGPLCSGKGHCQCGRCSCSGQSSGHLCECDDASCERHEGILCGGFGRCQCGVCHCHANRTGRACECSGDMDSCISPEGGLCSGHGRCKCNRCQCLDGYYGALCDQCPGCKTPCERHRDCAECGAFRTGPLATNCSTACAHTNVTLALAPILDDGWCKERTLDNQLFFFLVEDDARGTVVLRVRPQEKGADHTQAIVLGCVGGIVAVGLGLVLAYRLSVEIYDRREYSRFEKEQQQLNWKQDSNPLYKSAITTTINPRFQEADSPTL
Put plainly: Adhesion inhibition assay (BCEF-labeled RPMI 8866 cells on huMAdCAM-1-Ig coated plates). The format is cell-based. The method, then:
Biological Results. Adhesion Inhibition Assay Method
RPMI 8866 cells are used in this assay. They are available in a medium with 10% FBS, 200 mM L-Glutamine, and penicillin/streptomycin 10x.
1. Coat plates (costar 3590) with a human MAdCAM-1-Ig dilution prepared in carbonate buffer (25 ng of huMAdCAM/well in 50 μl carbonate buffer) overnight at 4° C. Carbonate buffer is NaHCO3 3.44 g, Na2CO3 1.72 g, water qs 200 ml; adjust pH to 9.5, filter thru 0.2 μm and store at 4° C.
2. Wash plates with the plate washer (BioTeck Instruments EL404) once, using settings for washing cell rinse, with the following parameters:
3. Block wells with blocking buffer (10% calf serum, PBS), 100 μl/well, 37° C., 3 h.
4. Wash plates with the plate washer once, using settings for washing cell rinse. Use plates within 10 min after washing.
5. Label the RPMI 8866 cells with 2′,7′-bis-(2-carboxyethyl)-5-6-carboxy-fluorescein acetoxymethyl ester (BCEF-AM) as follows:
spin down the cells at 1500 rpm, 10 min. Decant supernatant. Resuspend cells at 4×10^6 cells/ml sterile PBS in 50 ml polypropylene tube. Add 2 μl BCEF-AM per ml of resuspended cells. Mix well and wrap tube in aluminum foil (to exclude light). Place cells at 37° C. for 30 min to label. Spin labeled cells down (while covered in aluminum foil) at 1500 rpm, 10 min. Decant supernatant. Resuspend labeled cells in 25 ml assay buffer and centrifuge at 1500 rpm, 10 min. Resuspend labeled cells in assay buffer at 2.5×10^6 cells/ml.
(assay buffer: HBSS, penicillin/streptomycin 10×, MnCl2 0.5 mM, Hepes 25 mM, pH=7.2)
6. Prepare dilutions of positive control: LDP-02 (α4β7 integrin blocking antibody) in assay buffer at 250 μg/ml and compounds of the invention in DMSO for addition to assay plates.
7. To polypropylene plate, add, with Multimek:
2.2 μl/well of 100% DMSO or compound dilutions;
147.8 μl/well of assay buffer to all wells;
50 μl/well of BCEF-labeled RPMI 8866 cells (at 2.5×10^6 cells/ml assay buffer);
Mix well and add 180 μl of the mix to huMAdCAM-1-Ig coated plate.
8. Read plate in fluorescent plate reader (excite at 485 nm, read at 535 nm) and adjust the gain (total signal).
9. Wrap plates in aluminum foils and incubate at 25° C. for 30 min.
10. Wash plates with the plate washer using settings for washing cell rinse.
11. Read plate in fluorescent plate reader (excite at 485 nm, read at 535 nm).
The following Table 2 summarizes the results for some of the compounds and indicates the IC50 in μM.
`O=C1NC(=O)N(c2cccc3ccccc23)C(=O)/C1=C\c1c[nH]c2ccccc12` [Example 1, 5-(1H-Indol-3-ylmethylene)-naphthalen-1-yl-pyrimidine-2,4,6-trione] registered an IC50 of 0.41 µM.
Under `Cn1cc(/C=C2/C(=O)NC(=O)N(c3cccc4ccccc34)C2=O)c2ccccc21` [Example 2, 5-(1-Methyl-1H-indol-3-ylmethylene)-1-naphthalen-1-yl-pyrimidine-2,4,6-trione] stands 0.94 µM.
Under `Cc1ccccc1N1C(=O)NC(=O)/C(=C/c2cn(C)c3ccccc23)C1=O` [Example 15, 5-(1-Methyl-1H-indol-3-ylmethylene)-1-o-tolyl-pyrimidine-2,4,6-trione] stands 2.3 µM.
Under `Cc1cccc(N2C(=O)NC(=O)/C(=C\C=C\c3ccccc3)C2=O)c1` [Example 16, 5-(3-Phenyl-allylidene)-1-m-tolyl-pyrimidine-2,4,6-trione] stands 0.9 µM; under `Cc1cccc(N2C(=O)NC(=O)/C(=C/c3c[nH]c4ccccc34)C2=O)c1` [Example 17, 5-(1H-Indol-3-ylmethylene)-1-m-tolyl-pyrimidine-2,4,6-trione], 2.93 µM; under `O=C1NC(=O)N(c2ccccc2Cl)C(=O)/C1=C\c1c[nH]c2ccccc12` [Example 18, 1-(2-Chloro-phenyl)-5-(1H-indol-3-ylmethylene)-pyrimidine-2,4,6-trione], 2.5 µM.
`Cc1cccc(N2C(=O)NC(=O)/C(=C\c3ccc[nH]3)C2=O)c1` [Example 24, 5-(Pyrrol-2-ylmethylene)-1-m-tolyl-pyrimidine-2,4,6-trione] had an IC50 of 2.95 µM.
Under `Cc1ccccc1N1C(=O)NC(=O)/C(=C/C=C/c2ccccc2)C1=O` [Example 35, 5-(3-Phenyl-allylidene)-1-o-tolyl-pyrimidine-2,4,6-trione] stands 2.65 µM.
Next, `O=C1NC(=O)N(c2cccc(Cl)c2)C(=O)/C1=C/c1c[nH]c2ccccc12` [Example 37, 1-(3-Chloro-phenyl)-5-(1H-indol-3-ylmethylene)-pyrimidine-2,4,6-trione]: 2.75 µM; `Cc1ccc(N2C(=O)NC(=O)/C(=C\C=C\c3ccccc3)C2=O)cc1` [Example 42, 5-(3-Phenyl-allylidene)-1-p-tolyl-pyrimidine-2,4,6-trione]: 2.6 µM.
Next, `O=C1NC(=O)N(c2ccccc2Cl)C(=O)/C1=C\C=C\c1ccccc1` [Example 43, 1-(2-Chloro-phenyl)-5-(3-phenyl-allylidene)-pyrimidine-2,4,6-trione]: 1.9 µM.
`O=C1NC(=O)N(Cc2cccnc2)C(=O)/C1=C/c1c[nH]c2ccccc12` [Example 49, 5-(1H-indol-3-ylmethylene)-1-pyridin-3-ylmethyl-pyrimidine-2,4,6-trione] returned a half-inhibitory concentration (IC50) of 1.3 µM. The IC50 values of the last two compounds are within 1.5-fold of each other.
Under `O=C1NC(=O)N(c2cccc3cccnc23)C(=O)/C1=C/C=C/c1ccccc1` [Example 51, 5-(3-Phenyl-allylidene)-1-quinolin-8-yl-pyrimidine-2,4,6-trione] stands 2.7 µM.

For the origin of these results see patent publication US20030105119A1, “Barbiturates as integrin antagonists and their use for treating inflammatory diseases” (priority 2001, published 2003).
